According to ChEMBL document CHEMBL1201862, “PubChem BioAssay data set” (2004):
Where “and” joins values, the source holds several entries; their conditions need not be identical. Equal values may be shown once.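 Tested at 5 concentrations; 48 h exposure; 96-well plates; endpoints linearly interpolated, else capped at highest concentration. GI50 is the concentration that inhibits growth by half.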 Calls of active or inactive are those of the source. Cut-off read from the data, not from the text of the source: active = GI50 up to about 1.1 µM and inactive = higher.

Key:
Assay in all cases: growth of human tumour cells (NCI), 48 h
[1] = tested on: A498
[2] = tested on: OVCAR-5
[3] = tested on: M19-MEL
[4] = tested on: 786-0
[5] = tested on: SK-OV-3
[6] = tested on: K562
[7] = tested on: RPMI-8226
[8] = tested on: OVCAR-3
[9] = tested on: UACC-257
[10] = tested on: SK-MEL-5
[11] = tested on: ACHN
[12] = tested on: SF-539
[13] = tested on: SK-MEL-2
[14] = tested on: KM12
[15] = tested on: OVCAR-8
[16] = tested on: KM-20L2
[17] = tested on: SN12C
[18] = tested on: U-251
[19] = tested on: DMS-273
[20] = tested on: DMS-114
[21] = tested on: SK-MEL-28
[22] = tested on: HOP-18
[23] = tested on: NCI-H226
[24] = tested on: NCI-H23
[25] = tested on: RXF 393
[26] = tested on: CCRF-CEM
[27] = tested on: SF-295
[28] = tested on: NCI-H522
[29] = tested on: IGROV-1
[30] = tested on: UACC-62
[31] = tested on: OVCAR-4
[32] = tested on: LOX IMVI
[33] = tested on: SF-268
[34] = tested on: TK-10
[35] = tested on: Malme-3M
[36] = tested on: HCT-116
[37] = tested on: HL-60
[38] = tested on: LXFL 529
[39] = tested on: M14
[40] = tested on: HOP-62
[41] = tested on: A549
[42] = tested on: NCI-H460
[43] = tested on: SNB-75
[44] = tested on: HCC 2998
[45] = tested on: SNB-78
[46] = tested on: DLD-1
[47] = tested on: UO-31
[48] = tested on: COLO 205
[49] = tested on: MOLT-4
[50] = tested on: HT-29
[51] = tested on: HCT-15
[52] = tested on: HOP-92
[53] = tested on: XF498
[54] = tested on: PC-3
[55] = tested on: NCI/ADR-RES
[56] = tested on: SW-620
[57] = tested on: EKVX
[58] = tested on: SNB-19
[59] = tested on: CAKI-1
[60] = tested on: SR

Measured: GI50

O=C(CSc1nnc(Cc2ccccc2)o1)Nc1ccccc1
inactive: [1] > 100 µM | [2] > 100 µM | [3] > 100 µM | [4] > 100 µM | [5] > 100 µM | [6] > 100 µM | [7] > 100 µM | [8] > 100 µM | [9] > 100 µM | [10] > 100 µM | [11] > 100 µM | [12] > 100 µM | [13] > 100 µM | [14] > 100 µM | [15] > 100 µM | [16] > 100 µM | [17] > 100 µM | [18] > 100 µM | [19] > 100 µM | [20] > 100 µM | [21] > 100 µM | [22] > 100 µM | [23] > 100 µM | [24] > 100 µM | [25] > 100 µM | [26] > 100 µM | [27] > 100 µM | [28] > 100 µM | [29] > 100 µM | [30] > 100 µM | [31] > 100 µM | [32] > 100 µM | [33] > 100 µM | [34] > 100 µM | [35] > 100 µM | [36] > 100 µM | [37] > 100 µM | [38] > 100 µM | [39] > 100 µM | [40] > 100 µM | [41] > 100 µM | [42] > 100 µM | [43] > 100 µM | [44] > 100 µM | [45] > 100 µM | [46] > 100 µM | [47] > 100 µM | [48] > 100 µM | [49] > 100 µM | [50] > 100 µM
> 100 µM: [51]

CCC1(O)CC(OC2CC(N(C)C)C(OC3CC4OC5CC(=O)C(C)OC5OC4C(C)O3)C(C)O2)c2c(cc3c(c2O)C(=O)c2c(O)ccc(O)c2C3=O)C1C(=O)OC (centres undefined)
active: [52] 0.00624 µM | [3] 0.00887 µM | [8] > 10 nM and 5.92 nM | [19] 0.00365 µM | [20] 0.00575 µM | [28] 0.00224 µM | [32] 0.000953 µM | [38] > 0.01 µM | [39] > 10 nM and 5.62 nM | [53] 0.00828 µM | [45] 0.0166 µM | [46] 0.00792 µM | [54] 0.00315 µM | [55] 0.00479 µM

O=C(CC(=O)C1CCOC1=O)C(=O)Nc1ccc(Cl)cc1Cl (centres undefined)
inactive: [1] > 100 µM | [2] > 100 µM | [52] > 100 µM | [3] > 100 µM | [4] > 100 µM | [5] > 100 µM | [6] > 100 µM | [7] > 100 µM | [8] > 100 µM | [9] > 100 µM | [10] > 100 µM | [11] > 100 µM | [12] > 100 µM | [13] > 100 µM | [14] > 100 µM | [15] > 100 µM | [16] > 100 µM | [17] > 100 µM | [18] > 100 µM | [19] > 100 µM | [56] > 100 µM | [20] > 100 µM | [21] > 100 µM | [23] > 100 µM | [24] > 100 µM | [25] > 100 µM | [26] > 100 µM | [27] > 100 µM | [57] > 100 µM | [28] > 100 µM | [29] > 100 µM | [30] > 100 µM | [31] > 100 µM | [32] > 100 µM | [33] > 100 µM | [34] > 100 µM | [35] > 100 µM | [36] > 100 µM | [58] > 100 µM | [37] > 100 µM | [38] > 100 µM | [39] > 100 µM | [40] > 100 µM | [41] > 100 µM | [42] > 100 µM | [53] > 100 µM | [43] 53.1 µM | [44] > 100 µM | [45] > 100 µM | [46] > 100 µM | [59] > 100 µM | [47] > 100 µM | [48] > 100 µM | [50] > 100 µM
> 100 µM: [51]

CC(C)CN1CC(C)C(=O)NC1=O (centres undefined)
inactive: [1] > 100 µM | [2] > 100 µM | [52] > 100 µM | [3] > 100 µM | [4] > 100 µM | [5] > 100 µM | [6] > 100 µM | [9] > 100 µM | [10] > 100 µM | [11] > 100 µM | [12] > 100 µM | [13] > 100 µM | [14] > 100 µM | [15] > 100 µM | [16] > 100 µM | [17] > 100 µM | [18] > 100 µM | [19] > 100 µM | [56] > 100 µM | [20] > 100 µM | [21] > 100 µM | [23] > 100 µM | [24] > 100 µM | [25] > 100 µM | [26] > 100 µM | [27] > 100 µM | [57] > 100 µM | [28] > 100 µM | [30] > 100 µM | [31] > 100 µM | [32] > 100 µM | [33] > 100 µM | [60] > 100 µM | [34] > 100 µM | [35] > 100 µM | [58] > 100 µM | [37] > 100 µM | [38] > 100 µM | [40] > 100 µM | [41] > 100 µM | [42] > 100 µM | [53] > 100 µM | [45] > 100 µM | [46] > 100 µM | [59] > 100 µM | [47] > 100 µM | [48] > 100 µM | [49] > 100 µM | [50] > 100 µM

CC(=O)OC1(C#N)CC2OC1C1C2N1C(=O)OC(C)(C)C (centres undefined)
inactive: [1] > 100 µM | [2] > 100 µM | [52] > 100 µM | [3] > 100 µM | [4] > 100 µM | [5] > 100 µM | [6] > 100 µM | [7] > 100 µM | [10] > 100 µM | [11] > 100 µM | [12] > 100 µM | [13] > 100 µM | [15] > 100 µM | [16] > 100 µM | [17] > 100 µM | [18] > 100 µM | [56] > 100 µM | [20] > 100 µM | [21] > 100 µM | [23] > 100 µM | [24] > 100 µM | [25] > 100 µM | [26] > 100 µM | [57] > 100 µM | [28] > 100 µM | [29] > 100 µM | [30] > 100 µM | [31] > 100 µM | [32] > 100 µM | [33] > 100 µM | [34] > 100 µM | [35] > 100 µM | [36] > 100 µM | [58] > 100 µM | [37] > 100 µM | [38] > 100 µM | [39] > 100 µM | [40] > 100 µM | [41] > 100 µM | [42] > 100 µM | [53] > 100 µM | [43] > 100 µM | [44] > 100 µM | [45] > 100 µM | [46] > 100 µM | [59] > 100 µM | [47] > 100 µM | [48] > 100 µM | [49] > 100 µM
> 100 µM: [51]

CN(C)c1ccc(/C=c2/sc3nc(=O)c(-c4ccccc4NC(=O)C(F)(F)F)nn3c2=O)cc1
inactive: [2] > 100 µM | [52] 77.4 µM | [3] > 100 µM | [4] > 100 µM | [5] > 100 µM | [6] > 100 µM | [8] > 100 µM | [10] > 100 µM | [11] > 100 µM | [12] > 100 µM | [13] > 100 µM | [14] > 100 µM | [15] > 100 µM | [17] > 100 µM | [18] 53.3 µM | [19] > 100 µM | [56] > 100 µM | [20] 20.6 µM | [21] > 100 µM | [23] 26.4 µM | [24] 67.6 µM | [25] > 100 µM | [26] > 100 µM | [27] > 100 µM | [57] > 100 µM | [28] > 100 µM | [29] > 100 µM | [30] > 100 µM | [31] > 100 µM | [32] > 100 µM | [33] > 100 µM | [60] 93.8 µM | [34] > 100 µM | [35] > 100 µM | [58] > 100 µM | [38] > 100 µM | [39] > 100 µM | [40] > 100 µM | [41] > 100 µM | [42] > 100 µM | [53] > 100 µM | [43] > 100 µM | [44] > 100 µM | [45] > 100 µM | [46] > 100 µM | [59] > 100 µM | [47] 50 µM | [48] 98.6 µM | [49] > 100 µM | [50] > 100 µM
